Values of other authors as cited in US9314524B2, “Topical formulations of Flucytosine” (priority 2007, dated 2016).

Columns and labels:
[1] = tested on: Candida parapsilosis; conditions: 65 Candida parapsilosis strains
[2] = tested on: Candida albicans; conditions: 342 Candida albicans strains
[3] = tested on: C. albicans; conditions: yeasts from 104 patients with vulvovaginal candidiasis
[4] = tested on: 227 clinical yeast isolates; conditions: for cross-resistance in fluconazole/itraconazole resistant C. albicans isolates: polyene antibiotics
[5] = tested on: Candida glabrata; conditions: 68 Candida glabrata strains
[6] = human, in vivo
[7] = tested on: C. tropicalis; conditions: 200-mg for 14 days, second line, 3 patients treated
[8] = tested on: Candida tropicalis; conditions: 70 Candida tropicalis strains
[9] = tested on: C. glabrata; conditions: 600-mg day for 2 to 3 weeks

OC(Cn1cncn1)(Cn1cncn1)c1ccc(F)cc1F [fluconazole]
isolates demonstrating resistance [1]: 4.6% | isolates showing resistance [2]: 7.6% | resistant C. albicans isolated, share of cases [3]: 13.46% | yeast strains resistant ([4]; 227 vaginal clinical yeast isolates): thirteen | isolates demonstrating resistance [5]: 10.3%

Nc1nc(=O)[nH]cc1F [flucytosine, 4-amino-5-fluoropyrimidin-2(1H)-one]
plasma level that led to bone marrow depression and hepatotoxicity [6]: greater than 100 mg/L

CC(=O)N1CCN(c2ccc(OCC3COC(Cn4ccnc4)(c4ccc(Cl)cc4Cl)O3)cc2)CC1 (stereo not drawn) [ketoconazole]
patients in whom the infection recurred [7]: three | isolates resistant [8]: 2.9%

C[C@@H]1[C@H](O)[C@@H](C)/C=C/C=C/CC/C=C/C=C/C=C/C=C/C(O[C@H]2O[C@H](C)[C@@H](O)[C@H](N)[C@@H]2O)CC2O[C@](O)(CC(O)C(O)CCC(O)CC(O)CC(O)CC(=O)O[C@H]1C)CC(O)C2C(=O)O (stereo partly drawn) [nystatin]
cross-resistance in fluconazole/itraconazole resistant C. albicans isolates [4]: no cross-resistance

C[C@@H]1[C@H](O)[C@@H](C)/C=C/C=C/C=C/C=C/C=C/C=C/C=C/[C@H](O[C@@H]2O[C@H](C)[C@@H](O)[C@H](N)[C@@H]2O)C[C@@H]2O[C@](O)(C[C@@H](O)C[C@@H](O)[C@H](O)CC[C@@H](O)C[C@@H](O)CC(=O)O[C@H]1C)C[C@H](O)[C@H]2C(=O)O [amphotericin B]
cross-resistance in fluconazole/itraconazole resistant C. albicans isolates [4]: no cross-resistance

OB(O)O [boric acid]
clinical and mycological success [9]: 64% | clinical and mycological success, symptomatic women [9]: 47 of 73
